Some results are limits rather than exact numbers.

In the assay the target is T1, human Dopamine D1 receptor (Homo sapiens, UniProt P21728).
T1 construct: expressed in transfected cells; host or cells: Ltk- cells (mouse fibroblasts), membrane preparation
T1 sequence (P21728 whole entry): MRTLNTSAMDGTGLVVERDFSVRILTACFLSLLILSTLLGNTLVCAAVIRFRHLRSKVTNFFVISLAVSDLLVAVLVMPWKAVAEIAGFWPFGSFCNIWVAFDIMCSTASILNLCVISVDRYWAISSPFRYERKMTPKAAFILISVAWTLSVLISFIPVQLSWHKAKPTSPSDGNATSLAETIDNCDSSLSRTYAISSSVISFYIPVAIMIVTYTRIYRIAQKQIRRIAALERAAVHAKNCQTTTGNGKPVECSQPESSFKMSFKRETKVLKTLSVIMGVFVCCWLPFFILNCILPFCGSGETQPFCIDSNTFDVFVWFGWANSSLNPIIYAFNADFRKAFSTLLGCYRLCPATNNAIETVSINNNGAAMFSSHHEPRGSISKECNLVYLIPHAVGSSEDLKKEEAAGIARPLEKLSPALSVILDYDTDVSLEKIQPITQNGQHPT
As to the kind of experiment: radioligand binding competition assay, displacement of [3H]SCH 23390 from D1 receptor (Ltk-cells membranes).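 Note: under 5 nM class also requires D2 to D1 selectivity above 500.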 The conditions noted are these: class combines Ki (D1) and, for A and B, D2:D1 selectivity (Ki D2 / Ki D1); read-out: D1 binding and D2:D1 Selectivity. The source says: Biological Activity: Compounds from this disclosure have been biologically characterized by their ability to displace a known D1-like selective ligand, [3H]SCH 23390 from the human Dopamine D1 receptor, and a known D2-like selective ligand, [3H] Methylspiperone, from the human Dopamine D2 and D4 receptors.
Affinity values (Ki) of compounds at human dopamine receptors were ascertained using radioligand binding competition assays. Cells expressing D1 (Ltk-cells), D2 (long variant, Ltk-cells), D4 (CHO cells) and D5 (GH4C1 cells) receptors were lysed in hypotonic buffer for membrane preparation. Membranes were incubated with various concentrations of test compound and 1 nM [3H] SCH 23390 (D1 and D5) and 0.2 nM [3H] Methylspiperone for (D2 and D4) assays. Non-specific binding was defined as binding in the presence of 10 micromolar of SCH 23390 for D1 and D5 assays and 10 micromolar butaclamol for D2 and D4 assays. Following incubation to equilibrium (1 hour at room temperature), bound radioligand was separated from free by rapid filtration. Bound radioactivity on the dried filters was quantified by liquid scintillation counting.
Selectivity is determined by dividing Ki for D2, D4 or D5 receptors by Ki for D1 receptor.
For orientation: Loss of bound radioactivity is the signal in a displacement assay; it reports binding, not function.
As to `N=C(/C=C/c1ccc(N2CCN(Cc3ccccc3)CC2)cc1)Nc1ccc(Cl)cc1` [Example 36], the Ki was in the range of 10 to 50 nM.

Turning to `CN(C)c1ccc(/C=C/C(=N)Nc2ccc(Cl)cc2)cc1` [Example 37], the Ki is 10 to 50 nM. In the case of `CCN(CC)c1ccc(/C=C/C(=N)Nc2ccc(Cl)cc2)cc1` [Example 38], the Ki was in the range of 10 to 50 nM. Then `C[C@@H]1CNCCN1c1ccc(/C=C/C(=N)Nc2ccc(Cl)cc2)c(Cl)c1` [Example 39], with less than 5 nM.

`CCN(CC)c1ccc(/C=C/C(=N)Nc2ccc(Cl)cc2)c(Cl)c1` [Example 40]: the Ki is less than 10 nM.

Regarding `N=C(/C=C/c1ccc(-c2cccc([N+](=O)[O-])c2)cc1)Nc1ccc(Cl)cc1` [Example 41], the Ki is 10 to 50 nM. Next, `N#Cc1ccc(-c2ccc(/C=C/C(=N)Nc3ccc(Cl)cc3)cc2)cc1` [Example 43]: less than 10 nM; `N=C(/C=C/c1ccc(-c2ccc(C=O)cc2)cc1)Nc1ccc(Cl)cc1` [Example 44]: less than 10 nM. Then `CC(CN1CCN(c2ccc(/C=C/C(=N)Nc3ccc(Cl)cc3)c(Cl)c2)CC1)c1ccccc1` (centres unmarked) [Example 45], with 10 to 50 nM. Then `COC(=O)C1CC1CN1CCN(c2ccc(/C=C/C(=N)Nc3ccc(Cl)cc3)c(Cl)c2)CC1` (centres unmarked) [Example 46], with 10 to 50 nM; and `N=C(/C=C/c1ccc(N2CCN(Cc3cccs3)CC2)cc1Cl)Nc1ccc(Cl)cc1` [Example 47], with 10 to 50 nM; and `N=C(/C=C/c1ccc(Cc2cccnc2)cc1)Nc1ccc(Cl)cc1` [Example 48], with 10 to 50 nM. As to `CC(=O)c1ccc(-c2ccc(/C=C/C(=N)Nc3ccc(Cl)cc3)cc2)cc1` [Example 49], the Ki is 10 to 50 nM. Then `CN1c2ccccc2Sc2cc(/C=C/C(=N)Nc3ccc(Cl)cc3)ccc21` [Example 50], with 10 to 50 nM; and `COc1cc(N(C)C)ccc1/C=C/C(=N)Nc1ccc(Cl)cc1` [Example 51], with 10 to 50 nM; and `CN1CCN(Cc2ccc(-c3ccc(/C=C/C(=N)Nc4ccc(Cl)cc4)cc3)cc2)CC1` [Example 52], with 10 to 50 nM. Consider `N=C(/C=C/c1ccc(N2CCN(Cc3cccc(OC(F)(F)F)c3)CC2)cc1Cl)Nc1ccc(Cl)cc1` [Example 53], for which the Ki was in the range of 10 to 50 nM. Next, `COc1ccc(/C=C/C(=N)Nc2ccc(Cl)cc2)c(F)c1` [Example 54]: 10 to 50 nM. Next, `COc1ccc(/C=C/C(=N)Nc2cc(F)cc(F)c2)cc1` [Example 55]: 10 to 50 nM; `CCC1CCC(N2CCN(c3ccc(/C=C/C(=N)Nc4ccc(Cl)cc4)c(Cl)c3)CC2)CC1` (centres unmarked) [Example 56]: 10 to 50 nM. Next, `N=C(/C=C/c1ccc(Cc2c[nH]cn2)cc1)Nc1ccc(Cl)cc1` [Example 57]: 10 to 50 nM; `N=C(/C=C/c1ccc(-c2cccc(F)c2)cc1)Nc1ccc(Cl)cc1` [Example 58]: 10 to 50 nM.

As to `C=Cc1ccc(-c2ccc(/C=C/C(=N)Nc3ccc(Cl)cc3)cc2)cc1` [Example 59], the Ki was in the range of 10 to 50 nM.

As to `CCC1CCCCN1c1ccc(/C=C/C(=N)Nc2ccc(Cl)cc2)cc1` (centres unmarked) [Example 60], the Ki was 10 to 50 nM. Then `N=C(Nc1ccc(Cl)cc1)c1ccc2cc(N3CCN(Cc4ccccc4)CC3)ccc2c1` [Example 61], with 10 to 50 nM; and `CCOc1ccc(CN2CCN(c3ccc(/C=C/C(=N)Nc4ccc(Cl)cc4)c(Cl)c3)CC2)cc1` [Example 62], with 10 to 50 nM. Then `N=C(/C=C/c1ccc(-c2ccsc2)cc1)Nc1ccc(Cl)cc1` [Example 64], with 10 to 50 nM; and `COc1ccc(/C=C/C(=N)Nc2ccc(Cl)cc2)cc1Cl` [Example 65], with 10 to 50 nM; and `N=C(Nc1ccc(Cl)cc1)c1ccc2cccc(O)c2n1` [Example 66], with 10 to 50 nM.

In the case of `N=C(/C=C/c1ccc(Cl)s1)Nc1ccc(Cl)cc1` [Example 67], the Ki was in the range of 10 to 50 nM. Then `N=C(/C=C/c1ccc(-c2ccc(CN3CCNCC3)cc2)cc1)Nc1ccc(Cl)cc1` [Example 68], with 10 to 50 nM. Next, `COc1ccc(/C=C/C(=N)Nc2ccc(Cl)cc2)cc1OC` [Example 69]: 10 to 50 nM; `COc1ccc(/C=C/C(=N)Nc2ccc(Cl)cc2)cc1` [Example 70]: 10 to 50 nM; `N=C(Nc1ccc(Cl)cc1)c1ccc2cc(N3CCNCC3)ccc2c1` [Example 71]: 10 to 50 nM. `N=C(/C=C/c1ccc2c(c1)OCO2)Nc1ccc(Cl)cc1` [Example 72]: the Ki was in the range of 10 to 50 nM. Then `N=C(/C=C/c1ccccc1Cl)Nc1ccc(Cl)cc1` [Example 73], with 10 to 50 nM; and `N=C(/C=C/c1ccc(N2CCN(C3CCCC(C(F)(F)F)C3)CC2)cc1Cl)Nc1ccc(Cl)cc1` (centres unmarked) [Example 74], with 10 to 50 nM; and `CC(C)(C)OC(=O)N1CCN(Cc2ccc(-c3ccc(/C=C/C(=N)Nc4ccc(Cl)cc4)cc3)cc2)CC1` [Example 75], with 50 to 10000 nM. Next, `N=C(/C=C/c1ccccc1Br)Nc1ccc(Cl)cc1` [Example 76]: 50 to 10000 nM; `CC(C)N1CCN(c2ccc(/C=C/C(=N)Nc3ccc(Cl)cc3)c(Cl)c2)CC1` [Example 77]: 50 to 10000 nM; `N=C(/C=C/c1ccc2ccccc2c1)Nc1ccc(Cl)cc1` [Example 78]: 50 to 10000 nM. Then `N=C(Nc1ccc(Cl)cc1)c1ccc2nc(N3CCNCC3)ccc2c1` [Example 79], with 50 to 10000 nM; and `N=C(/C=C/c1ccc(Cl)cc1)Nc1ccc(Cl)cc1` [Example 80], with 50 to 10000 nM; and `COc1ccc(/C=C\C(=N)Nc2ccc(Cl)cc2)cc1` [Example 81], with 50 to 10000 nM. As to `COc1ccc(/C=C/C(=N)Nc2cccc([N+](=O)[O-])c2)cc1` [Example 82], the Ki lay within 50 to 10000 nM. Then `CCC(C)CN1CCN(c2ccc(/C=C/C(=N)Nc3ccc(Cl)cc3)c(Cl)c2)CC1` (centres unmarked) [Example 83], with 50 to 10000 nM; and `N=C(/C=C/c1ccc(N2CCCCC2)cc1)Nc1ccc(Cl)cc1` [Example 84], with 50 to 10000 nM; and `COc1ccc(/C=C\C(=N)Nc2ccc(Cl)cc2)c(F)c1` [Example 85], with 50 to 10000 nM.

As for `N=C(/C=C/c1ccc(N2CCOCC2)cc1)Nc1ccc(Cl)cc1` [Example 86], the Ki was 50 to 10000 nM. Take `N=C(/C=C/c1ccc(-c2ccc(CN3CCN(Cc4ccccc4)CC3)cc2)cc1)Nc1ccc(Cl)cc1` [Example 87]: the Ki was in the range of 50 to 10000 nM.

Consider `N=C(/C=C/c1ccc(-n2ccnc2)cc1)Nc1ccc(Cl)cc1` [Example 88], for which the Ki is 50 to 10000 nM. Next, `N=C(Nc1ccc(Cl)cc1)c1ccc2[nH]ccc2c1` [Example 89]: 50 to 10000 nM; `N=C(/C=C/c1ccc(N2CCCC2)cc1)Nc1ccc(Cl)cc1` [Example 90]: 50 to 10000 nM. As to `COc1ccc(/C=C/C(=N)Nc2cccc(C#N)c2)cc1` [Example 91], the Ki lay in the range of 50 to 10000 nM. Then `N=C(/C=C/c1ccc(O)c(Cl)c1)Nc1ccc(Cl)cc1` [Example 92], with 50 to 10000 nM; and `N=C(/C=C/c1ccc(N2CCN(c3cccc(Cl)c3)CC2)cc1)Nc1ccc(Cl)cc1` [Example 93], with 50 to 10000 nM; and `COc1cccc2ccc(C(=N)Nc3ccc(Cl)cc3)nc12` [Example 94, N-(4-chloro-phenyl)-8-methoxy-quinoline-2-carboxamidine], with 50 to 10000 nM.

As to `Cc1ccc(C)n1-c1ccc(/C=C/C(=N)Nc2ccc(Cl)cc2)cc1` [Example 95], the Ki was 50 to 10000 nM. Take `COc1ccc(NC(=N)/C=C/c2ccc(N3CCNCC3)cc2Cl)cc1Cl` [Example 96]: the Ki lay within 50 to 10000 nM. Next, `N=C(Nc1ccc(Cl)cc1)c1ccc2cc(N3CCN(C4CCCCC4)CC3)ccc2c1` [Example 97]: 50 to 10000 nM; `N=C(/C=C/c1ccc(N)cc1)Nc1ccc(Cl)cc1` [Example 98]: 50 to 10000 nM.

For `N=C(/C=C/c1ccc(-c2cc(F)cc(F)c2)cc1)Nc1ccc(Cl)cc1` [Example 99], the Ki is 50 to 10000 nM. Then `CCn1c2ccccc2c2cc(/C=C/C(=N)Nc3ccc(Cl)cc3)ccc21` [Example 100], with 50 to 10000 nM; and `CN(C)c1ccc(/C=C/C(=N)Nc2ccc(Cl)cc2)c2ccccc12` [Example 101], with 50 to 10000 nM; and `N=C(/C=C/c1ccc(Cl)c(Cl)c1)Nc1ccc(Cl)cc1` [Example 102], with 50 to 10000 nM. Then `N=C(/C=C/c1c(Cl)cccc1Cl)Nc1ccc(Cl)cc1` [Example 103], with 50 to 10000 nM. On to `N=C(/C=C/c1ccc(N2CCN(c3ccccc3)CC2)cc1)Nc1ccc(Cl)cc1` [Example 104], for which the Ki is 50 to 10000 nM. As for `N=C(/C=C/c1ccc2c(c1)OCCO2)Nc1ccc(Cl)cc1` [Example 105], the Ki is 50 to 10000 nM.

For `N=C(Nc1ccc(Cl)cc1)c1ccc2cc(O)ccc2c1` [Example 106, N-(4-chloro-phenyl)-6-hydroxy-naphthalene-2-carboxamidine], the Ki was 50 to 10000 nM. Next, `COc1ccc(-c2ccc(/C=C/C(=N)Nc3ccc(Cl)cc3)cc2)cc1OC` [Example 107]: 50 to 10000 nM; `N=C(/C=C/c1ccc(CN2CCCC2)cc1)Nc1ccc(Cl)cc1` [Example 108]: 50 to 10000 nM; `N=C(/C=C/c1cc(Cl)cc(Cl)c1)Nc1ccc(Cl)cc1` [Example 109]: 50 to 10000 nM. Next, `N=C(/C=C/c1ccc(CNCc2ccccc2)cc1)Nc1ccc(Cl)cc1` [Example 110]: 50 to 10000 nM; `N=C(/C=C/c1ccc(-c2ccc(CO)cc2)cc1)Nc1ccc(Cl)cc1` [Example 111]: 50 to 10000 nM.

The values are drawn from patent publication US7423149B2, “Substituted n-aryl amidines as selective D1 dopamine receptor antagonists for the treatment of obesity and CNS disorders” (Schering Corporation, priority 2003, dated 2008).
